These results are taken from BindingDB's records for doi:10.1038/nchembio.2326 (California Institute of Technology, 2017).

Experiment [1] has as its target 26S proteasome non-ATPase regulatory subunit 14 (Homo sapiens, UniProt O00487). Nature of the experiment: In Vitro Rpn11 Activity Assay. The conditions noted are these: pH 7.5; 30 °C.
Protocol: Fluorescence polarization assays were performed in low-volume 384-well solid black plates (Molecular Devices) in quadruplicate. The assays were performed in buffer containing 50 mM Tris-HCl pH7.5, 1 mM MgCl2, 50 μM ATP, 1 mM DTT and 0.01% NP-40. The components for the assay were added in the following sequence: (1) 5 μl compound (in 3% DMSO) at different concentrations, (2) 5 μl of diluted human 26S proteasome (Enzo Life Sciences, NY. 26S proteasome was pre-incubated with epoxomicin at room temperature for 1 h, then diluted ten-fold in 1× Assay Buffer), and (3) 5 μl of substrate (3 nM Ub4peptideOG). 100 μM Zn(cyclen)2+ was present in the titration reaction for the experiments performed with Zn(cyclen)2+. Fluorescence polarization was measured at 30 °C using a PHERAstar plate reader (BMG Labtech) with excitation at 480 nm and emission at 520 nm.
The target in experiment [2] is BRISC and BRCA1-A complex member 1/BRISC and BRCA1-A complex member 2/BRISC complex subunit Abraxas 2/Lys-63-specific deubiquitinase BRCC36 (Human, UniProt P46736+Q15018+Q9NWV8+Q9NXR7). Nature of the experiment: In Vitro BRCC36 Activity Assay. How it is done:
BRCC36 activity was measured using 1 nM purified BRISC complex and 80 nM di-ubiquitin substrate DiUbK63TAMRA (UF-310, Boston Biochem). TAMRA fluorescence intensity was monitored using a PHERAstar plate reader with excitation at 540 nm and emission at 590 nm. Reactions were performed in black low-volume 384-well plates and analyzed as described above.

The target of a further experiment is T1, Histone deacetylase 6 (Homo sapiens, UniProt Q9UBN7).
T1 sequence (Q9UBN7 whole entry): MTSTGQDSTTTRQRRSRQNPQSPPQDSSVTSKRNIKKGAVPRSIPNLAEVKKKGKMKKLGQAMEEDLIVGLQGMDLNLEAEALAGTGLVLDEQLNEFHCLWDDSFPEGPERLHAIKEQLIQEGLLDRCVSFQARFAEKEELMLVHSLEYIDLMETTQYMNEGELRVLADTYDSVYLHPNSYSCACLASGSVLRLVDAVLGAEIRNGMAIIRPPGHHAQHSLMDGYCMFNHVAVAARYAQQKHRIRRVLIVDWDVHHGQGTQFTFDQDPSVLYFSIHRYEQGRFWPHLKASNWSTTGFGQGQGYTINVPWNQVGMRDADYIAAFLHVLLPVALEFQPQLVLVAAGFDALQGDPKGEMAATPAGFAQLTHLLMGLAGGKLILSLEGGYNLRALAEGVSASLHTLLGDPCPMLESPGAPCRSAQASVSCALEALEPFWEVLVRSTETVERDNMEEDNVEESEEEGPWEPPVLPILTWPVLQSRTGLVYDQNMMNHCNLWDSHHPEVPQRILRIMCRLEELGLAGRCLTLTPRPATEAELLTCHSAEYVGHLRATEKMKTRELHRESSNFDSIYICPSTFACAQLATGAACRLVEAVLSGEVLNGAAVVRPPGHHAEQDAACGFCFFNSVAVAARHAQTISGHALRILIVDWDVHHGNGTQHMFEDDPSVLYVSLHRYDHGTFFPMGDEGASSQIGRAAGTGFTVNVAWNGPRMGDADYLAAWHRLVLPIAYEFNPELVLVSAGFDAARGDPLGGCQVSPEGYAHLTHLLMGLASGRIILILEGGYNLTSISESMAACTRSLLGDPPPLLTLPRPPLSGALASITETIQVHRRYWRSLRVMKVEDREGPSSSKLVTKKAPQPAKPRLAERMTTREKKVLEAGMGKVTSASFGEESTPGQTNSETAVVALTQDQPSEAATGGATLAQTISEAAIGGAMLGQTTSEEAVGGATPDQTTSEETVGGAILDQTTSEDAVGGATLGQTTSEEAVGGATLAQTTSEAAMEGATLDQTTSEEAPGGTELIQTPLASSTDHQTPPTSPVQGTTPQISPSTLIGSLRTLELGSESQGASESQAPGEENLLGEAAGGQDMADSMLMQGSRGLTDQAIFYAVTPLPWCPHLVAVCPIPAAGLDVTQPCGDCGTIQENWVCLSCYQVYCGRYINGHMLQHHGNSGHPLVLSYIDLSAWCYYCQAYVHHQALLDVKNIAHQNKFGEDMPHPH
Nature of the experiment: HDAC6 Activity Assay. The conditions noted are these: pH 8; 37 °C. How it is done: The enzyme was diluted with 25 mM Tris-Cl, 137 mM NaCl, 2.7 mM KCl, 1 mM MgCl2, 0.1 mg/ml BSA, pH 8.0 buffer and its activity was measured by using Substrate 3 (BPS Bioscience; catalog #50037). The assays were carried out in black, low-binding NUNC 96-well plates. Each well contained a volume of 50 μl including buffer, HDAC (50 ng/well), inhibitor, and substrate (20 μM). Prior to adding substrate, the plate was pre-incubated for 5 min. Upon addition of substrate, the plate was incubated at 37 °C for 30 min. At this point, HDAC assay developer (50 μl, BPS Bioscience; catalog #50030) was added to each well and the plate was incubated for 15 min at room temperature. The fluorescence was recorded with a BioTek FLx800 or Synergy H4 microplate reader.

A further experiment concerns the target Lactoylglutathione lyase (Homo sapiens, UniProt Q04760). Nature of the experiment: GLO1 Activity Assay. The note with it: pH 7; 25 °C. How it is done:
Assays were carried out in 100 mM sodium phosphate, pH 7.0 buffer using 96-well Clear UV Plate (Corning UV Transparent Microplates; catalog #3635). A fresh solution of glutathione (pre-substrate 1, 100 mM) as well as methylglyoxal (pre-substrate 2, 100 mM) was prepared in deionized water. The substrate was prepared by adding 14.5 ml of buffer and 0.99 ml of each pre-substrate components. The substrate mixture was vortexed vigorously for 15 s, then allowed to sit at room temperature for 20 min. Initial well volume was 50 μl containing GLO1 (40 ng) and inhibitor. This protein and inhibitor mixture was incubated for 15–20 min before the addition of substrate. To this was then added substrate (150 μl), yielding a maximum amount of 5% DMSO per well. The enzyme activity was measured using a BioTek Synergy H4 plate reader by measuring absorbance at 240 nmevery 1 min for 8 min.

Experiment [3] concerns the target 72 kDa type IV collagenase (Homo sapiens, UniProt P08253). Nature of the experiment: MMP Activity Assay. The conditions noted are these: pH 7.5; 37 °C. How it is done:
(§1) The assay was carried out in white NUNC 96-well plates as previously described [Puerta et al., J. Biol. Inorg. Chem., 11:131-138]. Each well contained a total volume of 90 μl including buffer (50 mM HEPES, 10 mM CaCl2, 0.05% Brij-35, pH 7.5), human recombinant MMP (1.16 U/well for MMP2 and 0.007 U/well for MMP12), and the fragment solution. This mixture was incubated at 37 °C for 30 min. The reaction was then initiated by the addition of 10 μl of the fluorogenic MMP substrate (4 μM final concentration, Mca-Pro-Leu-Gly-Leu-Dpa-Ala-Arg-NH2-AcOH) (Mca = (7-methoxycoumarin-4-yl) acetyl; Dpa = N-3-(2,4-dinitrophenyl)-L-a,β-diaminopropionyl). Fluorescence measurements were recorded using a BioTek Synergy H4 fluorescence plate reader every minute for 20 min with excitation and emission wavelengths at 320 and 400 nm, respectively.

In experiment [4] the target is Macrophage metalloelastase (Homo sapiens, UniProt P39900). Nature of the experiment: MMP Activity Assay. The note with it: pH 7.5; 37 °C. How it is done: as §1
Sequence of Macrophage metalloelastase (P39900 whole entry): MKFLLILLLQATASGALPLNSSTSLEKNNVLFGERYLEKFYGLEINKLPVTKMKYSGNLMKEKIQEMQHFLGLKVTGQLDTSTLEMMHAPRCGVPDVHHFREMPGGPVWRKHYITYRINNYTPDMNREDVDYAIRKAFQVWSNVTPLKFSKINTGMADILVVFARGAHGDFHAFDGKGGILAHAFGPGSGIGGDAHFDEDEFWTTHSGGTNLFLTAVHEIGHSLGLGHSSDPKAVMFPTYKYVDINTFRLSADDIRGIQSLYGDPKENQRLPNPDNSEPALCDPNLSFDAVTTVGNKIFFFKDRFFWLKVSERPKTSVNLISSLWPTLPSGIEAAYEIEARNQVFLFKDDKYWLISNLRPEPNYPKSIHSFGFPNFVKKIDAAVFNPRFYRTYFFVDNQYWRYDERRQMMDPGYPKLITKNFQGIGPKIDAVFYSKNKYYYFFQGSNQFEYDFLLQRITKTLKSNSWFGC

Sequence of 26S proteasome non-ATPase regulatory subunit 14 (O00487 whole entry): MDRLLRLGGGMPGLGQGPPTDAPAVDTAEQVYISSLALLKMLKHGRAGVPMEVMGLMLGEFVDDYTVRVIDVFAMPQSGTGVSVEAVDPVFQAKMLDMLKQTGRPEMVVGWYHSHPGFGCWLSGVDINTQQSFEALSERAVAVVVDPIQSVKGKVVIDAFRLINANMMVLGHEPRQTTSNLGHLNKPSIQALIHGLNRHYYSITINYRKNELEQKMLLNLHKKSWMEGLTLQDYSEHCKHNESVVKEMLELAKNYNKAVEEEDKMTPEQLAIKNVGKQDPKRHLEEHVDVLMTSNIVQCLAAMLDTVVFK
Sequence of 72 kDa type IV collagenase (P08253 whole entry, the tested form may be a part): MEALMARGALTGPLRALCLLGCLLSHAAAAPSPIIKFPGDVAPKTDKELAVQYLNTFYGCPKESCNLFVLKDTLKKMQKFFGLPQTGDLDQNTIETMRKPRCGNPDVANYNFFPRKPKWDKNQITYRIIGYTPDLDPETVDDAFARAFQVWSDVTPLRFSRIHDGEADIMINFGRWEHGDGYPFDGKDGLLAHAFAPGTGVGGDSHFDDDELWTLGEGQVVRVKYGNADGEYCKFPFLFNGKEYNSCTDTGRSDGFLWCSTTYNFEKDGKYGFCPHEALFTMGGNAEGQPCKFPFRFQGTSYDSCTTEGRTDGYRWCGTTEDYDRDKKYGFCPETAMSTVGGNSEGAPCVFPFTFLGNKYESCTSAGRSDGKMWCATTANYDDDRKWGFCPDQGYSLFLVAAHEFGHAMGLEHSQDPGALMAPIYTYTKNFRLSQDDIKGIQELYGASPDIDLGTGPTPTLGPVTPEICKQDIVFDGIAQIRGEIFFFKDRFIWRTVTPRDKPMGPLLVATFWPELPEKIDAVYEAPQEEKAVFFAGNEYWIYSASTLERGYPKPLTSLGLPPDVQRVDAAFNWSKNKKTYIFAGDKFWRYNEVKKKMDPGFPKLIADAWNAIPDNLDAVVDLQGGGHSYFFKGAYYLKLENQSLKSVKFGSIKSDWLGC
Sequence of Lactoylglutathione lyase (Q04760 whole entry): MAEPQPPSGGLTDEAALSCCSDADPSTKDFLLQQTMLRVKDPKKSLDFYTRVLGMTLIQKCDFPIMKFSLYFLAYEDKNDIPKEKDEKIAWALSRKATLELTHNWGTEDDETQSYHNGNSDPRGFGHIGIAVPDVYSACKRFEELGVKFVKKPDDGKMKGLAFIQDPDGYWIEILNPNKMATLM

Take `Sc1cccc2cccnc12` [8-Mercaptoquinoline (8TQ)]: in experiment [1], the half-inhibitory concentration (IC50) turned out to be 2.4 µM.
As for `O=C(NCCc1nccs1)c1cnc2c(S)cccc2c1` [Capzimin], the IC50 was 2.3 µM in experiment [2]; > 200 µM on Histone deacetylase 6; 42.8 µM at Lactoylglutathione lyase; > 50 µM in experiment [3]; > 50 µM in experiment [4].
